From patent publication US9873693B2 (Sunesis Pharmaceuticals, Inc., priority 2006, dated 2018)
Like-named read-outs stand apart in the source and are kept apart here.

Experiments:
phosphorylated PDK1 = phosphorylated PDK1 (Homo sapiens (Human), UniProt O15530); test: PDK1 kinase assay (coupled PDK1/AKT/FAM-crosstide, IMAP); type: biochemical; details: 0.5 nM phosphorylated PDK1, 24 μM ATP; read-out: Inhibition of phospo-PDK1 in vitro IC50
phospho-akt (Thr308) = phospho-akt (Thr308) MSD ELISA in PC-3 cells; type: cell-based; details: for inhibition at 1 µM / inhibition at 10 µM: read-out: Percent Inhibition of phospho-Akt (308) By MSD ELISA
Procedure: PC-3 cells were harvested by trypsin and counted. Cells were plated in coated 96-well flat bottom plates (plate 15,000 cells/well in 100 ul growth media (10% FBS, 1× pen-strep) an place in an incubator overnight.
Subject inhibitors were stocked at 50 mM, then diluted to 30 mM (4.8 μl cpd plus […] DMSO) in 100% DMSO. Three-fold dilutions were performed from 30 mM stock. (4 μl into 8 ul 100% DMSO). Aliquots of 1.0 μl of inhibitor solution were transferred into SF Medium (using deep well block).
Control wells were prepared as follows. For DMSO high controls, 1.0 μl of 100% DMSO was added into 1.0 ml SF.
MSD plates were blocked for 1 hour by adding 150 μl of Blocking Solution (3% BSA) to each well. The MSD plates were washed 4× with TBST, and 50 μl lysates were transferred to MSD plate and place on plate shaker shake at 4 degrees O/N, light shaking (speed 3.5). The plate was washed 4× with TBST.
25 μl of Ab detection solution was added to each well. The plate was sealed and incubated 1 hr RT, light shaking (speed 3.5). The plate was washed 4 times with TBST. 150 μl of Read Buffer was added (5 mls 4×MSD Read Buffer+15 mls water). Finally the plate was read immediately on the MSD plate reader.

[1] = Homo sapiens, PC-3, 2 h, PC-3 cells, 2 hours, no serum, read-out: Inhibition of P308 Akt in cells using MSD EC50
[2] = Homo sapiens, PC-3, 2 h, PC-3 cells, 2 hours, no serum, read-out: Reduction of Cellular Levels of Akt p308 By MSD ELISA (EC50 μM)
[3] = Homo sapiens, PC-3, 2 h, read-out: Inhibition of P308 Akt in cells using MSD EC50
[4] = Homo sapiens, PC-3, 2 h, read-out: Reduction of Cellular Levels of Akt p308 By MSD ELISA (EC50 μM)

phosphorylated PDK1, sequence (O15530 51-360): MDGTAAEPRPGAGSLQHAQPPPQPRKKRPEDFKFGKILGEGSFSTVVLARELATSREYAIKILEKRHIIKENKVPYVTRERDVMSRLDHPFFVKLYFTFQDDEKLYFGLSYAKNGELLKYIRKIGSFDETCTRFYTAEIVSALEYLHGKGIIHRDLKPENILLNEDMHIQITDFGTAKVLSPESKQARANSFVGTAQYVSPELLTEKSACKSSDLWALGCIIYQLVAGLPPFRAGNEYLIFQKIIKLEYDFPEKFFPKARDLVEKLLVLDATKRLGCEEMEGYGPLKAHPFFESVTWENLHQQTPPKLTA

SMILES | IC50 (phosphorylated PDK1) | EC50 (phospho-akt (Thr308); [1]) | EC50 (phospho-akt (Thr308); [2]) | also measured
O=C(NCc1cccc(-c2c[nH]c3ncccc23)n1)c1cccn(Cc2ccc(F)c(F)c2)c1=O [Cpd 4] | < 500 nM | 1 to 5 µM |  | inhibition at 1 µM (phospho-akt (Thr308); Homo sapiens, PC-3 cells): 25 to 75%; inhibition at 10 µM (phospho-akt (Thr308); Homo sapiens, PC-3 cells): > 75%
O=C(NCc1cccc(-c2n[nH]c3ncccc23)c1)c1cccn(Cc2ccc(F)c(F)c2)c1=O [Cpd 6] | < 500 nM | 1 to 5 µM |  | inhibition at 1 µM (phospho-akt (Thr308); Homo sapiens, PC-3 cells): 25 to 75%; inhibition at 10 µM (phospho-akt (Thr308); Homo sapiens, PC-3 cells): 25 to 75%
O=C(NCc1cccc(-c2c[nH]c3nccnc23)c1)c1cccn(Cc2ccc(F)c(F)c2)c1=O [Cpd 13] | < 500 nM | 1 to 5 µM |  | inhibition at 1 µM (phospho-akt (Thr308); Homo sapiens, PC-3 cells): 25 to 75%; inhibition at 10 µM (phospho-akt (Thr308); Homo sapiens, PC-3 cells): > 75%
O=C(O)c1cnc2[nH]cc(-c3cccc(CNC(=O)c4cccn(Cc5ccc(F)c(F)c5)c4=O)c3)c2c1 [Cpd 20] | < 500 nM |  | > 5 µM | 
O=C(NCc1cccc(-c2c[nH]c3ncc(Cl)cc23)c1)c1cccn(Cc2ccc(F)c(F)c2)c1=O [Cpd 22] | < 500 nM | 1 to 5 µM | 1 to 5 µM | 
CC(C)Oc1cc(CNC(=O)c2cccn(Cc3ccc(F)c(F)c3)c2=O)cc(-c2c[nH]c3ncccc23)c1 [Cpd 25] | < 500 nM |  |  | EC50 (phospho-akt (Thr308); [3]): < 1 µM; EC50 (phospho-akt (Thr308); [4]): < 1 µM
NC(=O)c1cnc2[nH]cc(-c3cccc(CNC(=O)c4cccn(Cc5ccc(F)c(F)c5)c4=O)c3)c2c1 [Cpd 26] | < 500 nM | < 1 µM | < 1 µM | 
CN(C)C(=O)c1cnc2[nH]cc(-c3cccc(CNC(=O)c4cccn(Cc5ccc(F)c(F)c5)c4=O)c3)c2c1 [Cpd 27] | < 500 nM | < 1 µM | < 1 µM | 
CCNC(=O)c1cnc2[nH]cc(-c3cccc(CNC(=O)c4cccn(Cc5ccc(F)c(F)c5)c4=O)c3)c2c1 [Cpd 28] | < 500 nM | < 1 µM | < 1 µM | 
CCCNC(=O)c1cnc2[nH]cc(-c3cccc(CNC(=O)c4cccn(Cc5ccc(F)c(F)c5)c4=O)c3)c2c1 [Cpd 29] | < 500 nM | < 1 µM | < 1 µM | 
COCCNC(=O)c1cnc2[nH]cc(-c3cccc(CNC(=O)c4cccn(Cc5ccc(F)c(F)c5)c4=O)c3)c2c1 [Cpd 30] | < 500 nM | < 1 µM | < 1 µM | 
CCNC(=O)C[C@@H](NC(=O)c1cccn(Cc2ccc(F)c(F)c2)c1=O)c1ccc(-c2c[nH]c3ncccc23)s1 [Cpd 31] | < 500 nM | 1 to 5 µM | 1 to 5 µM | 
CCCNC(=O)C[C@@H](NC(=O)c1cccn(Cc2ccc(F)c(F)c2)c1=O)c1ccc(-c2c[nH]c3ncccc23)s1 [Cpd 32] | < 500 nM |  |  | EC50 (phospho-akt (Thr308); [3]): 1 to 5 µM; EC50 (phospho-akt (Thr308); [4]): 1 to 5 µM
O=C(C[C@@H](NC(=O)c1cccn(Cc2ccc(F)c(F)c2)c1=O)c1ccc(-c2c[nH]c3ncccc23)s1)NC1CC1 [Cpd 33] | < 500 nM | 1 to 5 µM | 1 to 5 µM | 
COCCNC(=O)C[C@@H](NC(=O)c1cccn(Cc2ccc(F)c(F)c2)c1=O)c1ccc(-c2c[nH]c3ncccc23)s1 [Cpd 34] | < 500 nM | 1 to 5 µM | 1 to 5 µM | 
O=C(Nc1cccc2ccc(-c3c[nH]c4ncccc34)cc12)c1cccn(Cc2ccc(F)c(F)c2)c1=O [Cpd 35] | < 500 nM | > 5 µM | < 1 µM | 
C[Si](C)(C)CCOCn1nc(NC(=O)c2cccn(Cc3ccc(F)c(F)c3)c2=O)c2cc(-c3c[nH]c4ncccc34)ccc21 [Cpd 36] | < 500 nM |  |  | EC50 (phospho-akt (Thr308); [3]): > 5 µM; EC50 (phospho-akt (Thr308); [4]): > 5 µM
NCc1cnc2[nH]cc(-c3cccc(CNC(=O)c4cccn(Cc5ccc(F)c(F)c5)c4=O)c3)c2c1 [Cpd 37] | < 500 nM |  |  | EC50 (phospho-akt (Thr308); PC-3 cells, 2 hours, no serum, read-out: Inhibition of P308 Akt in cells using MSD EC50): 1 to 5 µM
NC(=O)c1cnc2[nH]cc(-c3ccc(CNC(=O)c4cccn(Cc5ccc(F)c(F)c5)c4=O)s3)c2c1 [Cpd 39] | < 500 nM | < 1 µM | < 1 µM | 
CNC(=O)c1cnc2[nH]cc(-c3ccc(CNC(=O)c4cccn(Cc5ccc(F)c(F)c5)c4=O)s3)c2c1 [Cpd 40] | < 500 nM | 1 to 5 µM | 1 to 5 µM | 
CCNC(=O)c1cnc2[nH]cc(-c3ccc(CNC(=O)c4cccn(Cc5ccc(F)c(F)c5)c4=O)s3)c2c1 [Cpd 41] | < 500 nM | < 1 µM | < 1 µM | 

SMILES | IC50 (phosphorylated PDK1) | EC50 (phospho-akt (Thr308); [1]) | EC50 (phospho-akt (Thr308); [2]) | also measured
O=C(Cc1cccc(C2CNc3ncccc32)c1)Nc1cccn(Cc2ccc(F)c(F)c2)c1=O (stereo not shown) [Cpd 44] | < 500 nM | 1 to 5 µM |  | 
O=C(NCc1cccc(-c2c[nH]c3ncc(-c4cccnc4)cc23)c1)c1cccn(Cc2ccc(F)c(F)c2)c1=O [Cpd 47] | < 500 nM | < 1 µM |  | 
O=C(NCc1cccc(-c2c[nH]c3ncc(-c4ccncc4)cc23)c1)c1cccn(Cc2ccc(F)c(F)c2)c1=O [Cpd 48] | < 500 nM | < 1 µM |  | 
O=C(NCc1cc(O)cc(-c2c[nH]c3ncccc23)c1)c1cccn(Cc2ccc(F)c(F)c2)c1=O [Cpd 49] | < 500 nM | 1 to 5 µM |  | 
O=C(NCc1cccc(-c2c[nH]c3nccc(Cl)c23)c1)c1cccn(Cc2ccc(F)c(F)c2)c1=O [Cpd 50] | < 500 nM | 1 to 5 µM |  | 
O=C(NCc1cccc(-c2c[nH]c3ncc(-c4cccs4)cc23)c1)c1cccn(Cc2ccc(F)c(F)c2)c1=O [Cpd 51] | < 500 nM | 1 to 5 µM |  | 
O=C(NCc1cccc(-c2c[nH]c3ncc(-c4ccoc4)cc23)c1)c1cccn(Cc2ccc(F)c(F)c2)c1=O [Cpd 53] | < 500 nM | < 1 µM |  | 
O=C(NCc1ccc(-c2c[nH]c3nccc(Cl)c23)s1)c1cccn(Cc2ccc(F)c(F)c2)c1=O [Cpd 55] | < 500 nM | 1 to 5 µM |  | 
O=C(NCc1cc(OCCN2CCOCC2)cc(-c2c[nH]c3ncccc23)c1)c1cccn(Cc2ccc(F)c(F)c2)c1=O [Cpd 56] | < 500 nM | 1 to 5 µM |  | 
O=C(NCc1ccc(-c2ccc3cn[nH]c3c2)s1)c1cccn(Cc2ccc(F)c(F)c2)c1=O [Cpd 59] | < 500 nM | 1 to 5 µM |  | 
CN(C)CCOc1cc(CNC(=O)c2cccn(Cc3ccc(F)c(F)c3)c2=O)cc(-c2c[nH]c3ncccc23)c1 [Cpd 60] | < 500 nM | 1 to 5 µM |  | 
Nc1ncccc1-c1ccc(CNC(=O)c2cccn(Cc3ccc(F)c(F)c3)c2=O)s1 [Cpd 97] | < 500 nM | 1 to 5 µM |  | 
CC(C)Oc1cc(CNC(=O)c2cccn(Cc3ccc(F)c(F)c3)c2=O)cc(-c2c[nH]c3ncc(F)cc23)c1 [Cpd 98] | < 500 nM | 1 to 5 µM |  | 
COc1ccnc(NCCC#CCCNC(=O)c2cccn(Cc3cccc(Cl)c3)c2=O)n1 [Cpd 250] | 500 to 10000 nM |  |  | 
COc1ccnc(NCCCCCNC(=O)c2cccn(Cc3ccc(Cl)c(Cl)c3)c2=O)n1 [Cpd 251] | 500 to 10000 nM |  |  | 
O=C(NCCCCc1c[nH]c2ncccc12)c1cc(Cl)cn(Cc2ccc(Cl)cc2)c1=O [Cpd 268] | < 500 nM |  |  | 
O=C(NCCCCc1c[nH]c2ncccc12)c1cccn(Cc2ccc(Cl)c(Cl)c2)c1=O [Cpd 269] | < 500 nM |  |  | 
O=C(NCC12CC3CC(C1)CC(c1c[nH]c4ncccc14)(C3)C2)c1cccn(Cc2ccc(F)c(F)c2)c1=O [Cpd 327] | 500 to 10000 nM |  |  | 
O=C(N[C@H]1CC[C@H](c2c[nH]c3ncccc32)CC1)c1cccn(Cc2ccc(F)c(F)c2)c1=O [Cpd 337] | > 10000 nM |  |  | 
O=C(NCCCCCCc1c[nH]c2ncccc12)c1cccn(Cc2ccc(F)c(F)c2)c1=O [Cpd 338] | < 500 nM |  |  | 
